Source: US4795754A, “3-(1H-tetrazol-5-y1)oxanilic acid and salts thereof and pharmaceutical compositions containing them” (Wakamoto Pharmaceutical Co., Ltd., priority 1986, dated 1989)
Read-outs that look alike come from different tables or passages of the source.

Legend:
[1] = test system: allergic conjunctivitis of guinea pigs; test: Allergic conjunctivitis, histamine content in lacrimal fluid (Test 4); type: in vivo, Hartley guinea pigs
Procedure: (§1) This test was carried out to estimate the therapeutic effect of the compounds according to the present invention on the allergic conjunctivitis of guinea pigs.
(§2) Hartley guinea pigs were passively sensitized by intravenously injecting 1 ml of anti-DNP-As serum. After 8 days, an antigen solution (DNP-BSA: 2.5 mg/ml) was dropped on the sinistral eye once a minute over 10 minutes, then the lacrimal fluid was collected with filter paper over 10 minutes while the inflammatory reaction of the eye was visually observed during the collection of the lacrimal fluid. At 10 minutes after the completion of the dropping of the antigen solution, the compounds to be examined were dropped on the eye once a minute over 10 minutes and thereafter the collection of the lacrimal fluid and the visual observation of the inflammatory reaction of the eye were likewise effected. Then, the amount of histamine present in the collected lacrimal fluid was determined according to the Komatsu's method (Michitoshi KOMATSU, Allergy, 1978, Vol. 27, pp. 67-74).
(§3) In addition, the concentration of MTCC used was 10^-3 g/ml and that of DSCG was 2×10^-2 g/ml.

[2] = test system: rats suffering from experimental allergic rhinitis; test: Nasal mucus secretion inhibitory effect, experimental allergic rhinitis (Test 3); type: in vivo, Wistar rats; details: brilliant blue in nasal perfusate, average of 5
From the text: This test was effected to examine the nasal mucus secretion inhibitory effect of the compounds according to the present invention on the rats suffering from experimental allergic rhinitis.
(§4) Wistar rats were passively sensitized by subcutaneously injecting anti-Cryptomeria Japonica-As serum of rat. After anesthetizing the rat with pentobarbital sodium, they were fixed while lying them on their back and the cervixes thereof were subjected to median incision. A polyethylene tube having an outer diameter of 1 mm was inserted into the internal nares of each rat through the incised portion of trachea, one end thereof was connected to a perfusion pump and sterilized physiologic saline warmed at 37° C. was perfused therethrough at a flow rate of 0.25 ml/min.
Then, 0.5 ml/100 g body weight of 4% brilliant blue was injected into the rat through the caudal vein, then the perfusate was recovered for 10 minutes and the concentration of the dye was determined which was regarded as the Ag (-) value of the control. 1 ml of the antigen extracted from pollen of Japanese cedar (1 micro liter per ml) was sprayed in both internal nares by means of an atomizer for internal nares, the antigen remaining in the internal nares was washed out with physiologic saline and the perfusate was then recovered for 30 minutes and the concentration of the dye was determined to estimate Ag (+) value of the control.
The compound to be tested were dissolved in 0.15 M phosphate buffer so as to form a solution of a desired concentration. Each of the solutions thus prepared was sprayed in both internal nares in an amound of 0.5 ml/100g body weight at the time of 5 minutes before the spray of the antigen and the concentration of the dye was determined on each sample. In this connection, the measurement of the dye concentration was effected according to the spectrophotometric method developed by M. Kojima et al. (Allergy, 1986, Vol. 35, pp. 180-187).

[3] = test system: metachromatic cells in nasal mucus; test: Degranulation inhibitory effect on metachromatic cells in nasal mucus, experimental allergic rhinitis (Test 2); type: in vivo, Wistar rats; details: intranasal 0.5 ml/100 g, 5 minutes before antigen, average of 5
Procedure: This test was carried out to examine the degranulation inhibitory effect of the compounds of the present invention on the metachromatic cells in nasal mucus originated from a rat suffering from experimental allergic rhinitis.
as §4, with “Japonica-Ascaris” for “Japonica-As”, “ml/min. 1 ml of the antigen extracted from pollen of Japanese cedar (10 micro liter per ml) was sprayed in both internal nares by means of an atomizer for internal nares and the perfusate delivered from the internal nares was recovered for 20 minutes. The number of degranulated cells per 100 metachromatic cells present in the recovered samples were scored and the value was regarded as that of the control (Nc).” for “ml/min.”
The compound to be tested were dissolved in 0.15M phosphate buffer so as to obtain a solution of a desired concentration, each solution was administered through both of the interanal nares in an amount of 0.5 ml/100 g body weight, at a time 5 minutes before the spray of the antigen and the number of degranulated cells (Nt) was scored according to the same manner as described above. The rate of inhibitory effect on the degranulation (Rd) was estimated from the following relation: [formula] Each experimental results is the average of 5 measurements.

[4] = test system: allergic conjunctivitis of guinea pigs; test: Allergic conjunctivitis, visual observation of inflammatory reaction of the eye (Test 4); type: in vivo, Hartley guinea pigs; details: MTCC 10^-3 g/ml, DSCG 2×10^-2 g/ml, dropped on the eye after antigen
Procedure: as §1, §2, §3

[5] = Japanese Journal of Pharmacology, 1982, Vol. 32, pp. 689-697; cited from earlier work
[6] = Acute toxicity test, dog (Test 5); type: in vivo; details: dog, in vivo, po; Male, p.o. (capsule); 14 days observation
Procedure: (§5) MTCC was administered to ddY Mice (body weight 20 to 23 g; 10 animals per test group) and Wistar rats (body weight 110 to 130 g; 10 animals per test group) through intravenous and oral routes and it was also administered to Beagle dogs (7 months old; 3 animals per test group) through oral route.
(§6) MTCC was administered to rats and mice in the form of a solution thereof in 0.1 M phosphate buffer in the case of intravenous administration and in the form of a suspension in 0.5% CMC-Na in the case of oral administration. While it was orally administered to dogs in the form of a capsule filled with the original powder.

Dog = test: Acute toxicity test, dog (Test 5); type: in vivo; details: Female, p.o. (capsule); 14 days observation
Procedure: as §5, §6

[7] = Water solubility / hydrophilicity (statement in words); type: physicochemical
Mouse = test: Acute toxicity test, mouse (Test 5); type: in vivo; details: Female, 14 days observation
Procedure: as §5, §6

[8] = Acute toxicity test, mouse (Test 5); type: in vivo; details: mouse, in vivo, Male, 14 days observation
Procedure: as §5, §6

[9] = Acute toxicity test, rat (Test 5); type: in vivo; details: rat, in vivo, Male, 14 days observation
Procedure: as §5, §6

Rat = test: Acute toxicity test, rat (Test 5); type: in vivo; details: Female, 14 days observation
Procedure: as §5, §6

[10] = After Dropping of Antigen (before compound)
[11] = After Dropping of Compound, MTCC 10^-3 g/ml, DSCG 2×10^-2 g/ml

| Structure (SMILES) | Histamine Content in Lacrimal Fluid [1, 10] | Histamine Content in Lacrimal Fluid [1, 11] | Dye Concentration ([2]; Concn. 10^-4 g/ml) | Dye Concentration ([2]; Concn. 10^-5 g/ml) | Dye Concentration ([2]; Concn. 10^-6 g/ml) | Dye Concentration ([2]; Concn. 10^-7 g/ml) | Dye Concentration ([2]; Concn. 10^-8 g/ml) | Rate of Inhibition of Degranulation Rd (%) ([3]; Concn. 10^-4 g/ml) | Rate of Inhibition of Degranulation Rd (%) ([3]; Concn. 10^-5 g/ml) | Rate of Inhibition of Degranulation Rd (%) ([3]; Concn. 10^-6 g/ml) | Rate of Inhibition of Degranulation Rd (%) ([3]; Concn. 10^-7 g/ml) | Rate of Inhibition of Degranulation Rd (%) ([3]; Concn. 10^-8 g/ml) | Therapeutic effect on swelling and congestion of the conjunctiva (visual observation) [4] | other results |
| --- | --- | --- | --- | --- | --- | --- | --- | --- | --- | --- | --- | --- | --- | --- |
| O=C(O)c1cc(=O)c2c(OCC(O)COc3cccc4oc(C(=O)O)cc(=O)c34)cccc2o1 [DSCG, Disodium Chromoglycate, reference compound] | 6.7 ng | 6.4 ng | 0.65 micro gr./ml | 0.89 micro gr./ml | 1.01 micro gr./ml | 1.44 micro gr./ml | 1.77 micro gr./ml | 90.3% | 71.5% | 39.4% | 8.1% | -1.7% | relatively low therapeutic effect | – |
| CCCCOC(=O)C(=O)Nc1cccc(-c2nnn[nH]2)c1 [MTB, Butyl 3(1H--tetrazol5-yl)oxanilate] | – | – | – | – | – | – | – | – | – | – | – | – | – | Water solubility (in words) [5]: hydrophobic or less soluble in water |
| O=C(O)C(=O)Nc1cccc(-c2nnn[nH]2)c1 [MTCC, 3-(1H-tetrazol-5-yl)oxanilic acid] | 6.3 ng | 2.4 ng | 0.64 micro gr./ml | 0.85 micro gr./ml | 0.99 micro gr./ml | 1.37 micro gr./ml | 1.74 micro gr./ml | 94.3% | 75.1% | 33.0% | 15.0% | -1.4% | excellent therapeutic effect | LD50 at 336 h [6]: > 2000 mg/kg; Acute Toxicity LD50 (Dog): > 2000 mg/kg; Histamine content in the lacrimal fluid (in words) ([1]; by the administration of MTCC, 10^-3 g/ml): substantially reduced; Water solubility (in words) [7]: hydrophyilic or soluble in water; Acute Toxicity LD50 (Mouse; i.v.): > 225 mg/kg; Acute Toxicity LD50 (Mouse; p.o.): > 2000 mg/kg; LD50 at 336 h ([8]; iv): > 225 mg/kg; LD50 at 336 h ([8]; po): > 2000 mg/kg; LD50 at 336 h ([9]; iv): > 180 mg/kg; LD50 at 336 h ([9]; po): > 2000 mg/kg; Acute Toxicity LD50 (Rat; i.v.): > 180 mg/kg; Acute Toxicity LD50 (Rat; p.o.): > 2000 mg/kg |
